Data reported in US20240425511A1, “HETEROCYCLIC COMPOUNDS FOR USE IN THE TREATMENT OF CANCER” (ARTIOS PHARMA LIMITED, priority 2021, published 2024).
pKi: −log10 of the molar value.

Target: Human Polθ polymerase domain (aa1820-2590) (Homo sapiens (Human), UniProt O75417)
Assay: Polθ Polymerase Domain WT Ki Assay (PicoGreen assay)
Type: biochemical
Settings: average of repeat determinations; 100 nM DNA substrate, 50 μM dNTPs, 0.156 nM Polθ
Experimental: A PicoGreen assay was used to measure the K, values of reversible compounds that inhibit the activity of Polθ in vitro.
Human Polθ polymerase domain (aa1820-2590) was expressed in E. Coli, purified, aliquoted and stored at −80° C. until required. Polθ substrate was generated from a 1.2:1 mix of DNA II Short to DNA II Long to give a final concentration of […] substrate in annealing buffer (20 mM Tris pH 7.5, 50 mM NaCl). The substrate was heated in 50 mL aliquots to 95° C. in a heating block for 5 min before the heating block switched off, the reaction left to cool to rt and stored at −20° C. until required.
Assay measurements were performed with 1× buffer comprising 25 mM Tris pH 7.5, 12.5 mM NaCl, […], 5% (v/v) glycerol, 0.01% v/v Triton x-100, 0.1 mg/ml BSA, 1 mM DTT. […]
To stop the reaction, 5 μL of a solution containing 25 mM Tris-HCl pH 7.5 and 20 mM EDTA was added at […] (t=0, 15, 30, 60, 90, 120, 150, 180 mins) using the Tempest's time delay function. […] After completing the assay, 5 μL of detection reagent (25 mM Tris-HCl pH 7.5 and 2.5% (v/v) PicoGreen) was dispensed into the wells using a Tempest liquid handler (Formulatrix) and plates subsequently read on the CLARIOstar Plus (BMG Labtech) using the default optical settings for fluorescein and the auto gain/focus settings. […]

Sequence of Human Polθ polymerase domain (aa1820-2590) (O75417 1820-2590): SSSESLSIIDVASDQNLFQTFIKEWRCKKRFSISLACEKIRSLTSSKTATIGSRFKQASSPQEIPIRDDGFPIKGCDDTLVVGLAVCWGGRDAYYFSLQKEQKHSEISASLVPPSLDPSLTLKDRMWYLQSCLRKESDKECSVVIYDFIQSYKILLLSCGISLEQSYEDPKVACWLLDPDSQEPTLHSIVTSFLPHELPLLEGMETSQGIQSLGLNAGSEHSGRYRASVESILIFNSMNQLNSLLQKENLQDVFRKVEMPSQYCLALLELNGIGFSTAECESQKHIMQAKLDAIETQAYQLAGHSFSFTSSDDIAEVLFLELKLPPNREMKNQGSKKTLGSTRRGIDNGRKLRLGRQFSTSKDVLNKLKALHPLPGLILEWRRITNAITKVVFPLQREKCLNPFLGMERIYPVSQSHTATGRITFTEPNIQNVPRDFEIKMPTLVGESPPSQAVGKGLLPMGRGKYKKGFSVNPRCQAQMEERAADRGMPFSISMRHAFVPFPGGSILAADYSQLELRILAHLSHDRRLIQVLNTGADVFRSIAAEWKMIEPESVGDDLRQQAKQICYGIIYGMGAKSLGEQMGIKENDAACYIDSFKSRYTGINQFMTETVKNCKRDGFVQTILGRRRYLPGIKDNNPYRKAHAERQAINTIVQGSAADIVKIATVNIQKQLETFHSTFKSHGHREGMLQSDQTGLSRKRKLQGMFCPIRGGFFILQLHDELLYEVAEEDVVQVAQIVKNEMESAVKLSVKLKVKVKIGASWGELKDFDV

pKi: 8.90
SMILES: Cc1cc(C(F)(F)F)cc(N2C(=O)C[C@@H]3CN(CCN4CCN(C)CC4)c4c(C)cccc4N(C)C(=O)[C@H]32)n1 [Example 1, (3aR,11aS)-6,10-Dimethyl-1-(6-methyl-4-(trifluoromethyl)pyridin-2-yl)-5-(2-(4-methylpiperazin-1-yl)ethyl)-1,3a,4,5,10,11a-hexahydro-2H-benzo[b]pyrrolo[2,3-f][1,4]diazocine-2,11(3H)-dione]
